US20260317357A1, “HETEROCYCLIC COMPOUNDS AS STING AGONISTS” (LigaChem Biosciences Inc., priority 2022, published 2026)

How the values were obtained:
[1] = Pharmacokinetics in Balb/C mouse after single IV dose; assay type: in vivo; settings: 1.5 mg/kg; for AUC∞, norm / Cmax, norm: dose-normalized
Method: For in vivo evaluation of STING agonist compounds described herein in naïve Balb/C mouse, single doses of STING agonist compounds were given at 1.5 mg/kg intravenously into female BALB/c mice (Orientbio, South Korea) at 6-8 weeks of age. Pharmacokinetics were studied following injection of the STING agonist compounds into Balb/C mice. Plasma samples were taken at various time points and stored frozen for analysis. The plasma concentrations of the STING agonist compounds at the indicated time points were measured using a LC-MS/MS analysis method.
Briefly, 250 μL of acetonitrile (ACN) solution was added in both 50 µL of sample and 50 µL of plasma containing 10 nM Dextromethorphan (internal standard), and the solutions were mixed vigorously using a vortex mixer for 5 minutes. The samples were then spun down at 14,000 rpm, 4° C. for 5 minutes. 100 μL of supernatants were combined with 100 μL of mobile phase A (0.1% formic acid in water with 5% ACN) and mixed thoroughly. The samples were measured for the STING agonist compounds using a LC-MS/MS (Nexera LC40 (SHIMADZU) and QTRAP4500 (SCIEX)).

[2] = In vitro cell cytotoxicity in PBMCs (CellTiter-Glo); assay type: cell-based
Method: PBMCs were also purchased from […]™ (#700025.2). The cells (8.0×10^4 cells per well) were seeded in a flat-bottomed 96-well plate in RPMI 1640 medium (Gibco, #22400097) with 10% heat-inactivated FBS and 1×Antibiotic-Antimycotic (Gibco, #15240062) and rested for 24 hours at 37° C. […] After 72 hours, the cell viability was measured using CellTiter-Glo Luminescent Cell Viability Assay (Promega, #G7573) according to the manufacture's instruction. The signal was detected using an EnVision Xcite multilabel reader and data were analyzed using GraphPad Prism 8 software.
To verify the effect of the STING agonist compounds in normal cell cytotoxicity, the PBMCs were treated with the STING agonist compounds for 3 days and measured the percentage of cell death.

hSTING-R232 = molecular target: T1, hSTING-R232 (Homo sapiens, UniProt Q86WV6, H232R); assay: STING agonist activity, THP1 Dual KI-hSTING-R232 IRF luciferase reporter cells; assay type: cell-based; settings: 24 hours
T1 construct: host or cells: THP1 Dual KI-hSTING-R232 (STING HAQ gene removed, R232 variant gene introduced)
T1 sequence (Q86WV6 whole entry H232R): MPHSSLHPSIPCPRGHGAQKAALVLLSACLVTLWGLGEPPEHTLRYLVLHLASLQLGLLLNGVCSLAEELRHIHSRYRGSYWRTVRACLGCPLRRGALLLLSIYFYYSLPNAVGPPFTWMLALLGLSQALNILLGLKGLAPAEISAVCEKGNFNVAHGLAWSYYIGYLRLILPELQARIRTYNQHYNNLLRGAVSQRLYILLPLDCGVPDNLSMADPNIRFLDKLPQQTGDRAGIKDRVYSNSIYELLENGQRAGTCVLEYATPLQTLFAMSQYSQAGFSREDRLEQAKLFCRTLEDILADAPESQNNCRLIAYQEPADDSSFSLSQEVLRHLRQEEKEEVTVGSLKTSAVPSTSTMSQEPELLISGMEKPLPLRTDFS
Method: (§1) In order to evaluate the activity of the STING agonist, reporter cells from Invivogen were used. The cell lines used in the experiment were THP1 Dual™ (InvivoGen #thpd-nfis) expressing the endogenous STING variant HAQ and THP1 Dual™ KI-hSTING-R232 (InvivoGen #thpd-r232/h232) into which the STING R232 or H232 variant gene was injected after removing the STING HAQ gene. The cell lines have a luciferase reporter gene inserted below the IFN regulatory factor (IRF) promoter, and thus the activity of the IFN regulatory factor (IRF) mechanism can be evaluated through luciferase expression.
(§2) The reporter cells were plated at 9.0×10^4 cells/100 μL per well in a 96-well plate using RPMI 1640 medium (Gibco, #22400097) supplemented with 10% heat-inactivated FBS and 1×Antibiotic-Antimycotic (Gibco, #15240062), 10 μg/mL blasticidin (Gibco, #A1113902), and 100 μg/mL Zeocin (Gibco, #R25005). The plated cells were cultured at 37° C., 5% CO2 for 24 hours, and then treated with 100 μL of the serially diluted compound in each well, and then cultured at 37° C., 5% CO2 for 24 hours. After culturing, 20 μL of the cell culture medium was transferred to a 96 well white plate, and QUANTI-Luc™ (InvivoGen #rep-qlcl) was added at 50 µL/well. Using a microplate reader (Perkin Elmer), the value of the luminescence signal increased in the experimental group treated with the drug compared to the control group not treated with the drug was calculated. EC50 values were derived according to the concentration of the compound using GraphPad Prism.

hSTING-HAQ = molecular target: T2, hSTING-HAQ (Homo sapiens, UniProt Q86WV6, G230A/H232R/R293Q/R71H); assay: STING agonist activity, THP1 Dual reporter cells expressing endogenous STING variant HAQ; assay type: cell-based; settings: IRF luciferase, 24 hours
T2 construct: expressing the endogenous STING variant HAQ; host or cells: THP1 Dual
T2 sequence (Q86WV6 whole entry R71H/G230A/H232R/R293Q): as the sequence (Q86WV6 whole entry H232R) above, with R71H, G230A, R293Q counted along it
Method: as §1, §2

hSTING-H232 = molecular target: T3, hSTING-H232 (Homo sapiens, UniProt Q86WV6); assay: STING agonist activity, THP1 Dual reporter cells with STING H232 variant; assay type: cell-based; settings: IRF luciferase, 24 hours
T3 construct: host or cells: THP1 Dual KI-hSTING (STING HAQ gene removed, H232 variant gene introduced)
T3 sequence (Q86WV6 whole entry): as the sequence (Q86WV6 whole entry H232R) above, with R232H counted along it
Method: as §1, §2

human STING = molecular target: T4, human STING (Homo sapiens, UniProt Q86WV6); assay: Direct binding potency, HUMAN STING WT BINDING KIT (Cisbio); settings: in vitro
T4 construct: purchased Cisbio #64BDSTGPEG
T4 sequence (Q86WV6 whole entry): as the sequence (Q86WV6 whole entry H232R) above, with R232H counted along it
Excerpt: Additionally, or analysis of direct binding potency of STING agonist compounds described herein to human STING, HUMAN STING WT BINDING KIT (Cisbio, #64BDSTGPEG) was used according to the manufacturer's instruction.

Row | Structure (SMILES) | EC50 (hSTING-R232) [nM] | also measured
1 | CCn1nc(C)cc1C(=O)Nc1nc2cc(C(N)=O)cc(OC)c2n1C/C=C/Cn1c(NC(=O)c2cc(C)nn2CC)nc2cc(C(N)=O)cc(OCCCN3CCOCC3)c21 [Comparative #1, reference compound] | – | AUC∞, norm ([1]; n = 3, plasma): 0.66 ± 0.07 kg·h/L; Cmax, norm ([1]; n = 3, plasma): 1.94 ± 0.30 kg/L; CC50 at 72 h [2]: 3.3 nM
2 | CCc1nc(C)oc1C(=O)Nc1nc2cc(C(N)=O)cnc2n1C/C=C/Cn1c(NC(=O)c2oc(C)nc2CC)nc2cc(C(N)=O)cc(OCCCO)c21 [Comparative #2, reference compound] | 3.39 | EC50 (hSTING-HAQ): 89.4 nM; EC50 (hSTING-H232): 9.5 nM; AUC∞, norm ([1]; n = 3, plasma): 0.05 ± 0.01 kg·h/L; Cmax, norm ([1]; n = 3, plasma): 0.16 ± 0.02 kg/L
3 | CCn1nc(C)cc1C(=O)Nc1nc2cc(C(N)=O)cc(OC)c2n1C/C=C/Cn1c(NC(=O)c2cc(C)nn2CC)nc2cc(C(N)=O)cc(OC/C=C/CN3CCOCC3)c21 [Compound 13] | 0.54 | –
4 | CCn1nc(C)cc1C(=O)Nc1nc2cc(C(N)=O)cc(OC)c2n1C/C=C/Cn1c(NC(=O)c2cc(C)nn2CC)nc2cc(C(N)=O)cc(OC/C=C/CN3CCNCC3)c21 [Compound 23] | 6.43 | –
5 | CCn1nc(C)cc1C(=O)Nc1nc2cc(C(N)=O)cc(OC)c2n1C/C=C/Cn1c(NC(=O)c2cc(C)nn2CC)nc2cc(C(N)=O)cc(OC/C=C\CN3CCOCC3)c21 [Compound 33] | 0.93 | –
6 | CCn1nc(C)cc1C(=O)Nc1nc2cc(C(N)=O)cc(OC)c2n1C/C=C/Cn1c(NC(=O)c2cc(C)nn2CC)nc2cc(C(N)=O)cc(OC/C=C\CN3CCC(N)CC3)c21 [Compound 38] | 10.3 | –
7 | CCn1nc(C)cc1C(=O)Nc1nc2cc(C(N)=O)cc(OC)c2n1C/C=C/Cn1c(NC(=O)c2cc(C)nn2CC)nc2cc(C(N)=O)cc(OC/C=C\CN3CCNCC3=O)c21 [Compound 43] | 2.81 | –
8 | CCn1nc(C)cc1C(=O)Nc1nc2cc(C(N)=O)cc(OC)c2n1C/C=C/Cn1c(NC(=O)c2cc(C)nn2CC)nc2cc(C(N)=O)cc(OCC#CCN3CCOCC3)c21 [Compound 48] | 0.69 | –
9 | CCn1nc(C)cc1C(=O)Nc1nc2cc(C(N)=O)cc(O)c2n1C/C=C/Cn1c(NC(=O)c2cc(C)nn2CC)nc2cc(C(N)=O)cc(OC/C=C/Cn3cc(N)cn3)c21 [Compound 69] | 0.85 | –
10 | CCn1nc(C)cc1C(=O)Nc1nc2cc(C(N)=O)cc(OC)c2n1C/C=C/Cn1c(NC(=O)c2cc(C)nn2CC)nc2cc(C(N)=O)cc(OC/C=C/CC3CCNCC3)c21 [Compound 89] | 6.97 | –
11 | CCn1nc(C)cc1C(=O)Nc1nc2cc(C(N)=O)cc(OC)c2n1C/C=C/Cn1c(NC(=O)c2cc(C)nn2CC)nc2cc(C(N)=O)cc(OC/C=C/COc3cccc(N)c3)c21 [Compound 95] | 1.75 | –
12 | CCn1nc(C)cc1C(=O)Nc1nc2cc(C(N)=O)cc(OC)c2n1C/C=C/Cn1c(NC(=O)c2cc(C)nn2CC)nc2cc(C(N)=O)cc(OC/C=C/Cn3ncc(CN)n3)c21 [Compound 110] | 1.36 | –
13 | CCn1nc(C)cc1C(=O)Nc1nc2cc(C(N)=O)cc(OC)c2n1C/C=C/Cn1c(NC(=O)c2cc(C)nn2CC)nc2cc(C(N)=O)cc(OC/C=C/[C@@H]3CCCN3)c21 [Compound 120] | 2.25 | –
14 | CCn1nc(C)cc1C(=O)Nc1nc2cc(C(N)=O)cc(OC)c2n1C/C=C/Cn1c(NC(=O)c2cc(C)nn2CC)nc2cc(C(N)=O)cc(OC/C=C/Cn3ncc4cc(N)ccc43)c21 [Compound 127] | 0.47 | –
15 | CCn1nc(C)cc1C(=O)Nc1nc2cc(C(N)=O)cc(OC)c2n1C/C=C/Cn1c(NC(=O)c2cc(C)nn2CC)nc2cc(C(N)=O)cc(OC/C=C/CN3CCCN3)c21 [Compound 133] | 0.33 | EC50 (human STING): 0.43 nM; AUC(0-inf) ([1]; n = 3, plasma): 950 ± 110 ng·h/mL; AUC(0-t) ([1]; n = 3, plasma): 920 ± 110 ng·h/mL; C0 ([1]; n = 3, plasma): 4500 ± 850 ng/mL; Cmax ([1]; n = 3, plasma): 2650 ± 400 ng/mL; AUC∞, norm ([1]; n = 3, plasma): 0.63 ± 0.07 kg·h/L; Cmax, norm ([1]; n = 3, plasma): 1.76 ± 0.27 kg/L; clearance ([1]; plasma, n = 3): 26.5 mL/min/kg; half-life ([1]; plasma, n = 3): 1.61 ± 0.02 h; Vd ([1]; plasma, n = 3, read-out: VSS): 1.39 ± 0.21 L/kg
16 | CCn1nc(C)cc1C(=O)Nc1nc2cc(C(N)=O)cc(OC)c2n1C/C=C/Cn1c(NC(=O)c2cc(C)nn2CC)nc2cc(C(N)=O)cc(OC/C=C/Cn3cc(CN)nn3)c21 [Compound 139] | 2.25 | –
17 | CCn1nc(C)cc1C(=O)Nc1nc2cc(C(N)=O)cc(OC)c2n1C/C=C/Cn1c(NC(=O)c2cc(C)nn2CC)nc2cc(C(N)=O)cc(OC/C=C/CN)c21 [Compound 145] | 2.23 | –
18 | CCn1nc(C)cc1C(=O)Nc1nc2cc(C(N)=O)cc(OC)c2n1C/C=C/Cn1c(NC(=O)c2cc(C)nn2CC)nc2cc(C(N)=O)cc(OC/C=C/CNC(=O)N3CCNCC3)c21 [Compound 147] | 4.03 | –
19 | CCc1nc(C)oc1C(=O)Nc1nc2cc(C(N)=O)cc(OC/C=C/Cn3cc(N)cn3)c2n1C/C=C/Cn1c(NC(=O)c2cc(C)nn2CC)nc2cc(C(N)=O)cc(OC)c21 [Compound 151] | 2.21 | EC50 (human STING): 0.13 nM
20 | CCc1nc(C)sc1C(=O)Nc1nc2cc(C(N)=O)cc(OC/C=C/Cn3cc(N)cn3)c2n1C/C=C/Cn1c(NC(=O)c2cc(C)nn2CC)nc2cc(C(N)=O)cc(OC)c21 [Compound 155] | 2.6 | EC50 (human STING): 0.4 nM
21 | CCn1nc(C)cc1C(=O)Nc1nc2cc(C(N)=O)cc(OC)c2n1C/C=C/Cn1c(NC(=O)c2cc(C)nn2CC)nc2cc(C(N)=O)cc(OC/C=C/Cn3cc(N)c(C(=O)OC)n3)c21 [Compound 163] | 0.96 | –
22 | CCn1nc(C)cc1C(=O)Nc1nc2cc(C(N)=O)cc(OC)c2n1C/C=C/Cn1c(NC(=O)c2cc(C)nn2CC)nc2cc(C(N)=O)cc(OC/C=C/Cn3cc(N)c(C(=O)O)n3)c21 [Compound 164] | 1.04 | –
23 | CCn1nc(C)cc1C(=O)Nc1nc2cc(C(N)=O)cc(OC)c2n1C/C=C/Cn1c(NC(=O)c2cc(C)nn2CC)nc2cc(C(N)=O)cc(OC/C=C/CNC(=N)N)c21 [Compound 166] | 1.17 | –
24 | CCn1nc(C)cc1C(=O)Nc1nc2cc(C(N)=O)cc(OC)c2n1C/C=C/Cn1c(NC(=O)c2cc(C)nn2CC)nc2cc(C(N)=O)cc(OC/C=C/Cn3cc(NCCC(=O)O)cn3)c21 [Compound 175] | 3.96 | –
25 | CCn1nc(C)cc1C(=O)Nc1nc2cc(C(N)=O)cc(OC)c2n1C/C=C/Cn1c(NC(=O)c2cc(C)nn2CC)nc2cc(C(N)=O)cc(OCC#CCn3cc(N)cn3)c21 [Compound 178] | 0.7 | –
26 | CCn1nc(C)cc1C(=O)Nc1nc2cc(C(N)=O)cc(OC)c2n1C/C=C/Cn1c(NC(=O)c2cc(C)nn2CC)nc2cc(C(N)=O)cc(OCCCS(C)(=N)=O)c21 (centres unmarked) [Compound 187] | 4.13 | –
27 | CCn1nc(C)cc1C(=O)Nc1nc2cc(C(N)=O)cc(OC/C=C/Cn3cc(N)cn3)c2n1C/C=C/Cn1c(NC(=O)c2cc(C)nn2CC)nc2cc(C(N)=O)cc(OCCCS(C)(=N)=O)c21 (centres unmarked) [Compound 197] | 8.13 | –
28 | CCn1nc(C)cc1C(=O)Nc1nc2cc(C(N)=O)cc(OC)c2n1C/C=C/Cn1c(NC(=O)c2cc(C)nn2CC)nc2cc(C(N)=O)cc(OC/C=C/COC(=O)N(C)CCNC)c21 [Compound 221] | 3.48 | –
29 | CCc1nc(C)oc1C(=O)Nc1nc2cc(C(N)=O)cc(OC/C=C/Cn3cc(N)cn3)c2n1C/C=C/Cn1c(NC(=O)c2cc(C)nn2CC)nc2cc(C(N)=O)cc(OC)c21 [Compound 222] | 2.72 | –
